Data as given in patent US20170080026A1, “METHOD AND COMPOUND FOR OPENING POTASSIUM CHANNELS OF MAMMAL VASCULAR SMOOTH MUSCLES IN A REMOTE CONTROL MANNER” (Tovaristvo Z Obmezhenou Vidpovidalnistu "Nanomedtrast", priority 2015, published 2017).
Where two headings read alike, the source gives them in different places.

System: outgoing potassium current (IK) in rat thoracic aorta SM cells
Test: Whole-cell outgoing K+ current (IK) recording in isolated thoracic aorta smooth muscle cells
Type: cell-based
Protocol: C, D show effects of potassium channel blockers (paxillin, 500 nM, and […] 10 mm) on the outgoing potassium current in smooth muscle cells of thoracic aorta not exposed to Au NPs (C) and exposed to Au NPs (D). Currents caused by single step excitations with an amplitude of 10 mV and 300 ms increments within −100 and +70 mV of outgoing potential at −60 mV.
Currents in each cell (except for leakage current) were converted into specific […], averaged and depicted versus membrane potential (mV). The data thus obtained were brought in consistency using the standard Boltzmann function with average parameters described herein. The resulting current-voltage characteristics (curves I-V) were obtained by measuring current at the end of an impulse. The data represent mean values of ±SEM (n=8).
For the purposes of the study, smooth muscle cells isolated from rat thoracic aorta using collagenase and pronase were taken. Rats were anesthetised with ketamine (37.5 mg/kg body weight, intraperitoneally) and xylazine (10 mg/kg body weight, intraperitoneally), and thoracic aorta about 1.0 . . . 1.5 cm long was removed and denuded to make it free from connective tissue. Aorta was cut into small pieces (1.5×1.5 mm) in the cooled low Ca^2+ ion content solution comprising (in mM): NaCl 140, KCl 6, MgCl2 3, D-glucose 10, HEPES 10 (pH 7.4) for 15 minutes. Vascular tissues were placed in fresh low Ca^2+ ion content solution comprising collagenase type IA 2 mg/mL (417 U/mg), pronase type E XXV 0.5 mg/ml, and bovine albumin serum 2 mg/ml. Then tissues were incubated for 30 minutes at a temperature of +37 ° C. After incubation, tissues were washed (for 2-3 minutes) twice in fresh low Ca^2+ ion content solution to remove enzymes. Cells were dispersed by stirring using a glass pipette and then placed in modified Krebs bicarbonate buffer. A certain number of muscle cells was maintained at a temperature of […] and remained functional for at least 4 hours. […]

| SMILES | effect on Au NPs-induced IK increment (SM cells exposed to Au NPs) | effect on Au NPs-induced IK increment | outgoing current |
| --- | --- | --- | --- |
| CC(C)(O)[C@H]1O[C@H]2CC[C@@]3(C)[C@@](O)(CC[C@H]4Cc5c([nH]c6ccccc56)[C@@]43C)C2=CC1=O [Paxillin, paxillin] | stopped Au NPs-induced IK increment | – | – |
| CC[N+](CC)(CC)CC [tetraethylammonium] | – | stopped Au NPs-induced IK increment | 3±1 pA/pF |
